What was measured:
[1] = tested on: chemically regulatable chimeric genes coding for GUS, AHAS or BT; experiment: Primer extension assay for mRNA of chemically regulatable chimeric genes; format: in vivo; details: callus or regenerated plant material from transgenic plants; level proportional to amount of regulator applied
Method: 50 g of total RNA is lyophilized in a 500 l Eppendorf tube. The RNA is resuspended in 30 l of radiolabeled probe solution and heated to 70′ C. for 10 minutes. The tube is slowly cooled to 37° C. and allowed to incubate overnight. Without removing the tube from the 37° C. water bath, 2 l of 10×reverse-transcriptase buffer (500 mM Tris-HCl, pH 7.5, 400 mM KCl, 30 mM MgCl2), 1 l 5 mg/ml bovine serum albumin, 5 l 100 mM dithiothreitol, 5 l 10×dNTPs (10 mM of each dNTP in H2O), 3 l H 20, 2 l RNasin (80 units), and 2 l reverse transcriptase (400 units) are added and the reaction is incubated at 37° C. for 30 minutes. To stop the reaction, 5 l of 3 M sodium acetate, pH 5, and 150 l absolute ethanol are added. The tube is left at −20° C. for 30 minutes, the precipitate is collected by centrifugation, washed with 80% ethanol and allowed to air-dry. The precipitate is resuspended in 10-20 l of loading dye (90% formamide, 0.05% bromophenol blue, 0.05% xylene cyanol, 1 mM EDTA) and the extension products are separated on a 6% sequencing gel (Maniatis, T. et al., supra). Extension products are visualized by autoradiography.
Plant materials induced and harvested as in Examples 140 to 142 are assayed for the induction of mRNA species by the isolation of RNA and the primer extension assay as described in Example 6.
The level of mRNA is proportional to the amount of regulator applied.

[2] = tested on: cucumber chitinase protein; experiment: Cucumber chitinase ELISA in transgenic plants carrying cucumber chitinase genomic constructs after leaf treatment; format: in vivo, tobacco; set-up: key: —: Indicates that sample has no detectable level of chitinase protein
Method: Once the transgenic plants are transferred to soil, they are grown 4-5 weeks before treatment. The following solutions are applied to the leaves with sterile paintbrushes:
3. Methyl benzo-1,2,3-thiadiazole-7-carboxylate. The solution is made by resuspending a wettable powder containing a formulation of the chemical with 25% active ingredient in sterile water at a concentration of 1 mg/ml.
4. Methyl 2,6-dichloroisonicotinate, prepared as above. Alternatively, 30 ul of 10 mM sodium phosphate buffer, pH 7.0, or 30 ul of the same buffer containing tobacco mosaic virus (50-100 pfu/30 ul) is applied to the leaves which have been sprinkled with carborundum. The buffers are distributed over the whole treated leaf by gentle rubbing.
The plants are allowed to continue to grow for seven days. The treated leaves are then harvested, frozen in liquid nitrogen and stored at −80° C. until they are assayed.
Frozen leaf tissue is ground in a mortar with a pestle in the presence of liquid nitrogen to produce a fine powder. 0.33 g of each tissue sample is added to 1 ml extraction buffer (50 mM Tris-HCl, pH 8.5, 0.2M 2-mercaptoethanol, 2 mM phenyl methyl sulfonyl fluoride, 2 mM benzamidine, 10 mM epsilon-aminocaproic acid, 1 mM leueptine) and the sample homogenized for one minute with an Ultra Turrax Mixer (shaft #S25N-8G, Tekmar Co. Cincinnati, Ohio). The samples are then centrifuged at 48,000×g for fifteen minutes at 4° C. and the supernatant removed from the pelleted material. The extracts are diluted at least 1:50 in ELISA diluent (101 mM sodium phosphate, pH 7.4, 140 mM sodium chloride, 0.05% Tween 20, 0.02% sodium azide, 1% BSA).
A microtiter plate is coated with monoclonal antibody specific to the cucumber chitinase protein at 2 ug/ml in borate-buffered saline (100 mM boric acid, 25mM sodium borate, 75 mM sodium chloride; pH 8.5) using 50 ul per well. The plate is incubated overnight at 4° C. The plate is washed with ELISA wash buffer (10 mM Tris-HCl, pH 8.0, 0.05% Tween 20, 3 mM sodium azide) and BSA blocking solution (10 mM sodium phosphate, pH 7.4, 140 mM sodium chloride, 0.02% sodium azide, 1% BSA) is added to completely cover each well. Incubation is for at least 30 minutes at room temperature.
The microtiter plate is washed with ELISA wash buffer and 50 ul of extract is added to the appropriate well. 50 ul of each of 10 chitinase protein standards (ranging from 0 ng/ml to 31.64 ng/ml) was also added to the appropriate well and the plate is incubated for two hours at 4° C. The plate is washed with ELISA wash buffer and 50 ul of rabbit polyclonal antibody to the cucumber chitainase protein (diluted 1:15,000 in ELISA diluent) is added to the well and incubated for one hour at 37° C. After washing with ELISA wash buffer, 50 ul of goat anti-rabbit conjugated to alkaline phosphatase (1:500 in ELISA diluent) is added to each well and incubated at 37° C. for one hour. The plate is then washed and 50 ul alkaline phosphatase substrate solution (0.6 mg/ml p-nitrophenyl phosphate in 0.5 mM magnesium chloride and 10% diethanolamine) is added to each well. After a 30 minute incubation at room temperature, 50 ul of 3N sodium hydroxide is added to each well to stop the reaction.
The plate is read at 405 nm and 492 nm on an HP Genenchem ELISA plate reader. The output values are expressed as A(405 nm)-A(492 nm)−0.092 to allow for correction of p-nitrophenyl phosphate as substrate. The chitinase standards for each plate are graphed logarithmically. The amount of chitinase protein in each sample is determined from the standard curve. If the amount of chitinase in any sample is close to the upper limit of the curve, the sample is assayed again at a greater dilution. Final results are expressed in the table below in ug chitinase per gram tissue.

COC(=O)c1cc(Cl)nc(Cl)c1 [MDCINA, Methyl 2,6-dichloroisonicotinate]
level of mRNA of the chimeric gene (GUS, AHAS or BT primer), primer extension assay [1]: elevated levels of mRNA | ELISA ASSAY RESULTS (ug chitinase/g tissue) ([2]; line Bam-1 (2001/BamChit), leaves harvested after seven days, water 0.066, buffer —): — | ELISA ASSAY RESULTS (ug chitinase/g tissue) ([2]; line Bam-3 (2001/BamChit), seven days, water —, buffer —): — | ELISA ASSAY RESULTS (ug chitinase/g tissue) ([2]; line Bam-4 (2001/BamChit), seven days, water —, buffer —): — | ELISA ASSAY RESULTS (ug chitinase/g tissue) ([2]; line Bam-8 (2001/BamChit), seven days, water —, buffer —): — | ELISA ASSAY RESULTS (ug chitinase/g tissue) ([2]; line Bam-9 (2001/BamChit), seven days, water —, buffer —): — | ELISA ASSAY RESULTS (ug chitinase/g tissue) ([2]; line Bam-10 (2001/BamChit), seven days, water 0.059, buffer 0.084): 2.378 ug chitinase/g tissue | ELISA ASSAY RESULTS (ug chitinase/g tissue) ([2]; line Bam-12 (2001/BamChit), seven days, water —, buffer —): — | ELISA ASSAY RESULTS (ug chitinase/g tissue) ([2]; line Bam-14 (2001/BamChit), seven days, water —, buffer —): — | ELISA ASSAY RESULTS (ug chitinase/g tissue) ([2]; line Bam-15 (2001/BamChit), seven days, water —, buffer —): — | ELISA ASSAY RESULTS (ug chitinase/g tissue) ([2]; line Bam-16 (2001/BamChit), seven days, water —, buffer —): 0.864 ug chitinase/g tissue | ELISA ASSAY RESULTS (ug chitinase/g tissue) ([2]; line Bam-17 (2001/BamChit), seven days, water —, buffer —): — | ELISA ASSAY RESULTS (ug chitinase/g tissue) ([2]; line Bam-19 (2001/BamChit), seven days, water —, buffer —): — | ELISA ASSAY RESULTS (ug chitinase/g tissue) ([2]; line Bam-21 (2001/BamChit), seven days, water —, buffer —): — | ELISA ASSAY RESULTS (ug chitinase/g tissue) ([2]; line Bam-23 (2001/BamChit), seven days, water —, buffer —): — | ELISA ASSAY RESULTS (ug chitinase/g tissue) ([2]; line Bam-24 (2001/BamChit), seven days, water —, buffer —): — | ELISA ASSAY RESULTS (ug chitinase/g tissue) ([2]; line Bam-25 (2001/BamChit), seven days, water —, buffer —): — | ELISA ASSAY RESULTS (ug chitinase/g tissue) ([2]; line Bam-26 (2001/BamChit), seven days, water —, buffer —): — | ELISA ASSAY RESULTS (ug chitinase/g tissue) ([2]; line Nco-2 (2001/NcoChit), seven days, water —, buffer —): — | ELISA ASSAY RESULTS (ug chitinase/g tissue) ([2]; line Nco-3 (2001/NcoChit), seven days, water —, buffer —): — | ELISA ASSAY RESULTS (ug chitinase/g tissue) ([2]; line Nco-5 (2001/NcoChit), seven days, water —, buffer —): — | ELISA ASSAY RESULTS (ug chitinase/g tissue) ([2]; line Nco-8 (2001/NcoChit), seven days, water —, buffer —): — | ELISA ASSAY RESULTS (ug chitinase/g tissue) ([2]; line Nco-9 (2001/NcoChit), seven days, water —, buffer —): — | ELISA ASSAY RESULTS (ug chitinase/g tissue) ([2]; line Nco-10 (2001/NcoChit), seven days, water —, buffer —): — | ELISA ASSAY RESULTS (ug chitinase/g tissue) ([2]; line Nco-11 (2001/NcoChit), seven days, water —, buffer —): — | ELISA ASSAY RESULTS (ug chitinase/g tissue) ([2]; line Nco-15 (2001/NcoChit), seven days, water —, buffer —): — | ELISA ASSAY RESULTS (ug chitinase/g tissue) ([2]; line Nco-16 (2001/NcoChit), seven days, water 0.555, buffer 0.566): 0.286 ug chitinase/g tissue | ELISA ASSAY RESULTS (ug chitinase/g tissue) ([2]; line Nco-17 (2001/NcoChit), seven days, water —, buffer —): — | ELISA ASSAY RESULTS (ug chitinase/g tissue) ([2]; line Sal-2 (2001/SalChit), seven days, water —, buffer —): — | ELISA ASSAY RESULTS (ug chitinase/g tissue) ([2]; line Sal-3 (2001/SalChit), seven days, water —, buffer —): 0.047 ug chitinase/g tissue | ELISA ASSAY RESULTS (ug chitinase/g tissue) ([2]; line Sal-4 (2001/SalChit), seven days, water —, buffer —): — | ELISA ASSAY RESULTS (ug chitinase/g tissue) ([2]; line Sal-5 (2001/SalChit), seven days, water —, buffer —): — | ELISA ASSAY RESULTS (ug chitinase/g tissue) ([2]; line Sal-7 (2001/SalChit), seven days, water —, buffer —): — | ELISA ASSAY RESULTS (ug chitinase/g tissue) ([2]; line Sal-8 (2001/SalChit), seven days, water —, buffer —): — | ELISA ASSAY RESULTS (ug chitinase/g tissue) ([2]; line Sal-9 (2001/SalChit), seven days, water —, buffer —): — | ELISA ASSAY RESULTS (ug chitinase/g tissue) ([2]; line Sal-11 (2001/SalChit), seven days, water —, buffer —): — | ELISA ASSAY RESULTS (ug chitinase/g tissue) ([2]; line Sal-12 (2001/SalChit), seven days, water —, buffer —): — | ELISA ASSAY RESULTS (ug chitinase/g tissue) ([2]; line Sal-13 (2001/SalChit), seven days, water —, buffer —): — | ELISA ASSAY RESULTS (ug chitinase/g tissue) ([2]; line Sal-14 (2001/SalChit), seven days, water —, buffer —): — | ELISA ASSAY RESULTS (ug chitinase/g tissue) ([2]; line Sal-15 (2001/SalChit), seven days, water —, buffer —): —

Source: patent US6632981B1, “DNA sequences encoding polypeptides having beta-1,3-glucanase activity” (Novartis Finance Corporation, priority 1988, dated 2003)
